In patent publication US20240116971A1, “NMN AND DERIVATIVES FOR ITS USE IN THE TREATMENT OF DEPRESSION AND/OR ANXIETY IN PATIENTS HAVING A FORM OF PARKINSONISM” (Nuvamid SA, priority 2021, published 2024):

How the values were obtained:
Assay type in all cases: in vivo, human
[1] = Blood level of NMN and NAD
Excerpt: The secondary objectives describe the characteristics of the patients who participated in the research, and aim at studying the pharmacokinetics of NMN in daily oral use and its impact on increasing NAD+ levels, and, in a preliminary way, at evaluating the potential benefits of NMN supplementation on the symptomatology related to multi-systemic atrophy syndrome MSA such as activities of daily living, motor disorders, orthostatic hypotension and autonomy using the validated […] scale. [table] Also, an aliquot of serum is stored at the laboratory at -80° C. for the determination of the patient's physiological NAD+ (Baseline) level by the promoter. The results are sent to the investigating responsible for checking these parameters (regarding the laboratory's standards) and validating or not the patient's eligibility. […] Also, an aliquot of acidified whole blood is stored at the AML at -80° C. for the determination of NMN metabolites. The hemodynamic constants (BP and HR standing up/lying down) are taken and entered in the patient's follow-up notebook by the nurse. The nurse also questions the patient on the possible occurrence of adverse events and checks the patient's compliance with treatment by filling in his or her follow-up notebook and pill box. On receipt, the investigating physician check the results: the blood parameters must be within the reference value limits and/or judged by the investigating physician as not clinically relevant. Otherwise, the patient is summoned without delay by the investigating physician to leave the study prematurely.

MSA patients [2] = assay: Efficacy on the UMSARS scale; conditions: for UMSARS activities of daily living sub-score, change: score 0 to 48, lower is better, p-value >0.05
Description: For each eligible patient: during the first visit, the investigator carries out a specific complementary clinical examination MSA (validated specific scale: UMSARS) in order to score the basal level of the patient at inclusion on 4 axes: activities of daily living (12 items), motor level (14 items), orthostatic hypotension [4 measures: BP standing/sleeping (2 min); CF standing/sleeping (2 min) and orthostatic symptoms [Y/N] and finally, decide on their level of disability (1 item). During this visit, they are given pillbox No 1. They are told to start the product under study the next morning, on D1. In fact, the first intake of the dietary supplement can be taken the next morning with breakfast (2 capsules). Pill box No 1 must be returned at visit V2 (D15) to check compliance. A first daily follow-up notebook (follow-up notebook no 1) is given to the patient to record the intake of the food supplement, the concomitant treatments (if applicable) and any undesirable events that may have occurred. Follow-up notebook no 1 should be returned to the investigator at the V2 follow-up visit. The nurse goes to the patient's home 2 days before each follow-up visit in order to carry out the blood test (safety biology), take the hemodynamic constants standing/lying down (after a 2 minute rest): SAP/DAP and HR which is filled in the patient's follow-up notebook. The nurse checks the patient's compliance with the pillbox and the follow-up booklet. The nurse also reminds the patient not to forget to bring back the pill dispenser and the follow-up booklet at each visit. The investigator also takes the hemodynamic constants of the patient standing and lying down (after 2 minutes rest): SAP/DAP and HR. During this consultation, the patient/carer is also asked to answer a specific quality of life questionnaire (MSA-QoL questionnaire). If the patient meets all the eligibility criteria (apart from biology), the neurologist gives them a medical prescription to carry out a biological assessment. This biological assessment must be carried out within 3 days depending on the patient's availability. To do this, a nurse visits the patient at his/her home to collect the biological samples and to send it to the Medical Analysis Laboratories, the local reference laboratory for this research.
During the third visit at D45 and fourth visit at D90, the investigator also carries out a specific complementary clinical examination MSA (validated specific scale: UMSARS) in order to score the patient's level after 3 months of NMN supplementation on 4 axes: activities of daily living (12 items), motor level (14 items), orthostatic hypotension [4 measures: BP standing/sleeping (2 min); HR standing/sleeping (2 min) and orthostatic symptoms Y/N] and finally decide on their level of disability (1 item).

MSA patients [3] = assay: Quality of life, MSA-QoL self-questionnaire; conditions: for MSA-QoL non-motor subscore, average difference compared to V1: V1 30.4±10.0 points; for MSA-QoL Motor subscore, average difference compared to V1: V1 40.1±19.0 points
Excerpt: [table] At this visit, the investigator checks the patient's completed follow-up notebook (compliance, adverse event (AE), treatments) and carries out an interrogation and clinical examination, including the taking of standing and lying hemodynamic constants (SAP/DAP and HR) in order to check the tolerance and the possible occurrence of an adverse event. Compliance is also monitored. The patient is asked to complete a quality of life questionnaire (MSA-QoL). Quality of life—MSA—QoL: the MSA-QoL scale is organized into 4 subsections: • Motor sub-score: items 1 to 14; • Non-motor sub-score: items 15 to 26; • Emotional/social sub-score: items 27 to 40. • Overall satisfaction of quality of life of 100 mm to describe the patient's overall satisfaction with their life.

[4] = 3-month supplementation with NMN (400 mg/day) per os, MSA patients, mITT and PP
[5] = at 3 months, mITT and PP populations
[6] = mITT population, V3, p-value >0.05
[7] = mITT population, V4, p-value >0.05

SMILES: NC(=O)c1ccc[n+]([C@@H]2O[C@H](COP(=O)([O-])O)[C@@H](O)[C@H]2O)c1 [beta-NMN, nicotinamide mononucleotide]
- blood levels of NAD [1, 4]: gradually increases
- blood levels of NMN [1, 4]: gradually increases
- blood NAD level, mean value ([1]; mITT population, V4 (n=8 subjects), NMN 400 mg/day per os, V1 16183.57±4205.09 (n=4 subjects)): 29194.12 ± 9706.95 ng/mL
- UMSARS Motor Examination Scale: improved items (MSA patients [2]; NMN 400 mg/day, 3 months): facial expression and tremor at rest
- UMSARS activities of daily living: improved items (MSA patients [2]; NMN 400 mg/day, 3 months): speech, writing, eating and handling cutlery, dressing, risk of falling and orthostatic symptoms
- UMSARS disability scale score (MSA patients [2]; PP population, 3.5±1.0 points at VO, scale 1 to 5): maintained at V3 and V4
- Orthostatic hypotension (OH) (MSA patients [2]; V3 and V4, OH had been detected in these patients at previous visits, other patients unchanged): two patients showed no signs of OH at V3 and V4
- functional situation of the patients (MSA patients [2]; at 1.5 months and 3 months, mITT and PP populations): slight improvement
- UMSARS motor examination, overall (MSA patients [2]; at 3 months, mITT and PP): did not show any improvement in the motor examination but did not show any deterioration
- UMSARS activities of daily living sub-score, change (MSA patients [2]; mITT population, V3 vs VO (16.3±6.8 points)): −0.3 point
- UMSARS Motor Examination Scale sub-score, change (MSA patients [2]; mITT population, V3 vs VO (18.5±11.3 points), score 0 to 56, lower is better): −0.6 points
- UMSARS Motor Examination Scale sub-score (MSA patients [2]; mITT population, V4, VO 18.5±11.3 points): rises again at V4 to reach the score observed at VO
- UMSARS activities of daily living sub-score, change (MSA patients [2]; mITT population, V4 vs VO (16.3±6.8 points)): −1.0 point
- UMSARS disability scale score (MSA patients [2]; mITT population, 2.9±1.4 points at VO, scale 1 to 5, lower is more independent): perfectly maintained at V3 and V4
- Overall satisfaction with quality of life, scaling (MSA patients [3]; PP population, V3 and V4 compared to V1): slight increase
- MSA-QoL Emotional/Social sub-score (MSA patients [3]; [5]): improvement
- MSA-QoL Motor subscore (MSA patients [3]; [5]): improvement
- MSA-QoL non-motor subscore (MSA patients [3]; [5]): improvement
- Overall satisfaction with quality of life, scaling (MSA patients [3]; mITT population, V2, V3 and V4 compared to V1, p-value >0.05): very slight decrease
- MSA-QoL non-motor subscore, average difference compared to V1 (MSA patients [3]; mITT population, V2, 0 to 48, higher is worse, p-value >0.05): −2.0 points
- MSA-QoL Motor subscore, average difference compared to V1 (MSA patients [3]; mITT population, V2, 0 to 56, higher is worse, p-value >0.05): −1.3 points
- MSA-QoL non-motor subscore, average difference compared to V1 (MSA patients [3]; [6]): −5.2 points
- MSA-QoL Motor subscore, average difference compared to V1 (MSA patients [3]; [6]): −5.6 points
- MSA-QoL non-motor subscore, average difference compared to V1 (MSA patients [3]; [7]): −4.1 points
- MSA-QoL Motor subscore, average difference compared to V1 (MSA patients [3]; [7]): −5.1 points
